# According to patent US20220267308A1, “Modulators of Excitatory Amino Acid Transporters and Methods Using Same” (The Wistar Institute of Anatomy and Biology, priority 2019, published 2022):
# Where two headings read alike, the source gives them in different places.
# Experiments:
# [1] = test system: cortical neurons; experiment: neuroprotection in neuronal cultures, bi-laminar approach, OGD insult; assay type: cell-based; conditions: OGD for 20 min
# Experimental: (§1) Top: Representative images (40× magnification) of 14 DIV cortical neurons in control conditions (FIG. 2A) or subjected to insult with 10 μM L-glutamate for 24 h (FIG. 2B). […] Bottom: Representative images of cortical neurons in control conditions (FIG. 2D) or subjected to insult with OGD for 20 min (FIG. 2E). […] Quantification performed 24 h after treatments in cultures stained for MAP-2 (green) and DAPI (blue). Surviving neurons were estimated by blind counting of 10 fields/coverslips, averages of triplicate determinations±SD (ANOVA followed by Dunnet's posthoc test, *p<0.05, **<0.01, p***<0.001, compared to control, #p<0.05, ###p<0.001, compared to insult).
# [2] = test system: cortical neurons; experiment: neuroprotection in neuronal cultures, bi-laminar approach, L-glutamate insult; assay type: cell-based; conditions: 10 μM L-glutamate for 24 h
# Experimental: as §1
# [3] = SNL (spinal nerve ligation) model; conditions: p<0.01 compared to vehicle
# [4] = molecular target: T1, EAAT3 (Homo sapiens, UniProt P43005); experiment: glutamate uptake mediated by EAAT3-expressing COS-7 cells; assay type: cell-based; conditions: for EAAT3 EC50 (nM): top number of the cell
# T1 construct: expressed in transfected cells; host or cells: COS-7
# T1 sequence (P43005 1-524): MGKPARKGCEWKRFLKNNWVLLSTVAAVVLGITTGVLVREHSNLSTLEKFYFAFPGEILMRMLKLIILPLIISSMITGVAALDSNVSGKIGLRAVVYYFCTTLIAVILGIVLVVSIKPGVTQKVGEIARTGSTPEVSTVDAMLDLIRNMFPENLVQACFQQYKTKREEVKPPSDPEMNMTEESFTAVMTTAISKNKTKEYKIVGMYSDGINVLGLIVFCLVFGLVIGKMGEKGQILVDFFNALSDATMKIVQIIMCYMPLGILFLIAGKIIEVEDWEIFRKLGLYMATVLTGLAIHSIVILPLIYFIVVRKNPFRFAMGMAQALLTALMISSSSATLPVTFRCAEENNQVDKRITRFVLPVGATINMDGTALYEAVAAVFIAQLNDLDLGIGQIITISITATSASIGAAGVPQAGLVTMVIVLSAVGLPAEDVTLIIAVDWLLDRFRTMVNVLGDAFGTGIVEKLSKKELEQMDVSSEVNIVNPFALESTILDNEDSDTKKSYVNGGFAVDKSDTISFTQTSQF
# [5] = test system: neuron-glia cultures; experiment: neuroprotection in mixed neuron-glia cultures; assay type: cell-based, rat
# Source text: Immunostaining against neuronal marker MAP-2 (green), glial maker GFAP (red), and nuclear marker DAPI (blue). Surviving neurons were estimated by blind counting of 10 fields/coverslips, averages of triplicate determinations±SD (ANOVA followed by Dunnet's posthoc test, ***p<0.001, compared to control, ###p<0.001, compared to insult). FIGS. 7A-7E show the in vitro neuroprotective properties of second and third generation compounds after glutamate and oxygen glucose deprivation insults in mixed neuron/glia cultures. […] Immunostaining against neuronal marker MAP-2 (green), glial maker GFAP (red), and nuclear marker DAPI (blue). Images taken with 30× magnification with a confocal microscope.
# [6] = molecular target: T2, EAAT1 (Homo sapiens, UniProt P43003); experiment: glutamate uptake mediated by EAAT1-expressing COS-7 cells; assay type: cell-based; conditions: for EAAT1 Efficacy: bottom number of the cell
# T2 construct: expressed in transfected cells; host or cells: COS-7
# T2 sequence (P43003 whole entry, the tested form may be a part): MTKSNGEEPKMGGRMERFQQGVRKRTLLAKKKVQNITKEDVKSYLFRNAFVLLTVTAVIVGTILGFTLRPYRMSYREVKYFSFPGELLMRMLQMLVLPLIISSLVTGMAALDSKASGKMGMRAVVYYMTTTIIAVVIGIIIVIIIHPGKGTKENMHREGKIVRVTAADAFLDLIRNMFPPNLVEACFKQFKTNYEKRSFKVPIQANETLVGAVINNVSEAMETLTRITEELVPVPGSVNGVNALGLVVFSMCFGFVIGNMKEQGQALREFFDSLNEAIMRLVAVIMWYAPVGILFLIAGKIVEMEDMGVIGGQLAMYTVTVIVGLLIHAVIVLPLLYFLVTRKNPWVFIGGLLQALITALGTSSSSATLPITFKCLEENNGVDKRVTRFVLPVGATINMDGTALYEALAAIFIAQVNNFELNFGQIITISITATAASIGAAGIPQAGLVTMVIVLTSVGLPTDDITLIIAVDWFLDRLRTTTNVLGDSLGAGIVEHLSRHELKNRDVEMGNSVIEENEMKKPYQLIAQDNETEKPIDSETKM
# [7] = test system: glia cells; conditions: for Km / Vmax: Glia
# [8] = molecular target: T3, EAAT2 (Homo sapiens, UniProt P43004); experiment: glutamate uptake mediated by EAAT2-expressing COS-7 cells; conditions: for EAAT2 Efficacy: bottom number of the cell
# T3 sequence (P43004 whole entry, the tested form may be a part): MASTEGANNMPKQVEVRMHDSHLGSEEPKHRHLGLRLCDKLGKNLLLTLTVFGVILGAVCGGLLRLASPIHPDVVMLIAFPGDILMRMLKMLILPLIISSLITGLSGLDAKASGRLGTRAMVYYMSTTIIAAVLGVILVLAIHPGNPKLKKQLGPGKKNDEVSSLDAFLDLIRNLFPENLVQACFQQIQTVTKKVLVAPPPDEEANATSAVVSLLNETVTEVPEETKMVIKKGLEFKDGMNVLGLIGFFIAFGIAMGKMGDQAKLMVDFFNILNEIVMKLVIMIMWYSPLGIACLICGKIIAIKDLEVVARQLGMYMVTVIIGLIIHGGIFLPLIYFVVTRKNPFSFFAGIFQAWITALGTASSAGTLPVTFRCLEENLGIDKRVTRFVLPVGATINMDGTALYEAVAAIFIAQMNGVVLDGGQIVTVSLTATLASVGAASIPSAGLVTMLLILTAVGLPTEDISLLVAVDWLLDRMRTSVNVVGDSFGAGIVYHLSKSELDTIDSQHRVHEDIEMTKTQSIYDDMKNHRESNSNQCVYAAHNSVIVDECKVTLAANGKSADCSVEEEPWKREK
# [9] = pilocarpine in vivo model of epilepsy; conditions: osmotic pump 48 hours, final dose 4 mg/Kg, after pilocarpine 380 mg/Kg; p=0.0189
# [10] = molecular target: T3, EAAT2; experiment: kinetic analysis of L-glutamate uptake in EAAT2-transfected COS-7 cells; assay type: cell-based; set-up: expressed in transfected cells; host or cells: COS-7; conditions: compound 10 nM, different concentrations of glutamate
smiles,measurement,setting,value
"NC(CCCP(=O)(O)O)C(=O)O (racemic) [APV, (DL)-2-amino-5-phosphonovaleric acid, reference compound]",cell death / surviving neurons,[1]; compound 100 μM,attenuated cell death
same,cell death / surviving neurons,[2]; compound 100 μM,attenuate cell death
"CN1CCN(C(C(=O)NCCc2ccc(F)cc2)c2ccc(C#N)cc2)CC1 (centres unmarked) [NA-014, 2-(4-cyanophenyl)-N-(4-fluorophenethyl)-2-(4-methylpiperazin-1-yl)acetamide]",analgesic response,[3]; 10 mg/kg,analgesic response
same,EAAT3 EC50 (nM),[4],No Effect
same,neuronal survival,"[5]; 100 μM L-glutamate for 24 h, co-treatment with 100 nM compound",neuroprotective effect
same,neuronal survival with co-application of EAAT inhibitor TBOA,"[5]; L-glutamate insult, compound plus TBOA",abolished by co-application of EAAT inhibitor TBOA
same,EAAT1 EC50 (nM),[6]; top number of the cell,No Effect
same,Km,[7]; NA-014 100 nM,52.5 ± 5.82 µM
same,Vmax,[7]; NA-014 100 nM,42.35 ± 1.44 pmol/well/min
same,Km,[7]; NA-014 500 nM,49.8 ± 8.3 µM
same,Vmax,[7]; NA-014 500 nM,72.76 ± 3.67 pmol/well/min
same,KM versus vehicle (in words),[7]; cultured glia cells pre-incubated with 100 nM and 500 nM,not statistically different
COc1ccc2[nH]c(=O)c(C(c3nnnn3CCc3ccccc3)N3CCN(C4CCCCC4)CC3)cc2c1 (centres unmarked) [GT949],cell death / surviving neurons,[2]; compound 10 nM,attenuate cell death
"CN1CCN(C(c2ccc(O)nc2)c2nnnn2CCc2ccccc2)CC1 (centres unmarked) [VY-3-286, 5-((4-methylpiperazin-1-yl)(1-phenethyl-1H-tetrazol-5-yl)methyl)pyridin-2-ol]",EAAT3 Efficacy,[4]; bottom number of the cell,130.50 ± 2.12%
same,EAAT1 Efficacy,[6],160.25 ± 27.22%
"COc1ccc(C(c2nnnn2CCc2ccccc2)N2CCN(C3CCCCC3)CC2)cc1OC (centres unmarked) [DA-050, 1-cyclohexyl-4-((3,4-dimethoxyphenyl)(1-phenethyl-1H-tetrazol-5-yl)methyl)piperazine]",EAAT3 EC50 (nM),[4],No Effect
same,EC50,[8],0.5 ± 0.56 nM
same,EAAT2 Efficacy,[8],261.50 ± 40.30%
same,EAAT1 Efficacy,[6],150.00 ± 21.21%
same,EC50,[6]; top number of the cell,46 ± 36.8 nM
"CN1CCN(C(C(=O)NCCc2ccc(F)cc2)c2cccnc2)CC1 (centres unmarked) [NA-005, N-(4-fluorophenethyl)-2-(4-methylpiperazin-1-yl)-2-(pyridin-3-yl)acetamide]",EAAT1 Efficacy,[6],189 ± 9.89%
"CN1CCN(C(c2ccncc2)c2nnnn2CCc2ccccc2)CC1 (centres unmarked) [DA-058, 1-methyl-4-((1-phenethyl-1H-tetrazol-5-yl)(pyridin-4-yl)methyl)piperazine]",EAAT3 EC50 (nM),[4],No Effect
same,EC50,[8],0.4 ± 0.42 nM
same,EAAT2 Efficacy,[8],200.50 ± 58.60%
same,EAAT1 Efficacy,[6],186.0 ± 41.01%
same,EC50,[6]; top number of the cell,2.24 ± 1.07 nM
"NCC1(CC(=O)O)CCCCC1 [Gabapentin, reference compound]",analgesic response,[3]; 200 mg/kg,analgesic response
"CN1CCN(C(c2cccnc2)c2nnnn2CCc2ccccc2)CC1 (centres unmarked) [DA-023, 1-methyl-4-((1-phenethyl-1H-tetrazol-5-yl)(pyridin-3-yl)methyl)piperazine]",neuronal death (FJC+ cell numbers) in the hilus,[9],significant reduction in the neuronal death
same,cell death / surviving neurons,[1]; compound 100 nM,attenuated cell death
same,cell death / surviving neurons,[2]; compound 10 nM,attenuate cell death
same,potency on transport augmentation (dose response curve),[8]; EAAT2-expressing COS-7 cells,nM range
same,efficacy on transport augmentation,"[8]; EAAT2-expressing COS-7 cells, dose response curve",< 150%
same,effect on KM (affinity for the substrate),[10],no effect on KM
same,effect on Vmax (in words),[10],increase in Vmax
"CN1CCN(C(c2ccc(F)nc2)c2nnnn2CCc2ccccc2)CC1 (centres unmarked) [VY-3-285, 1-((6-fluoropyridin-3-yl)(1-phenethyl-1H-tetrazol-5-yl)methyl)-4-methylpiperazine]",EAAT1 Efficacy,[6],2.75 ± 3.18 222 ± 55.72%
